Data on four compounds can be found in US9776987B2, “Amide derivatives for GPR119 agonist” (CHONG KUN DANG PHARMACEUTICAL CORP., priority 2013, dated 2017).

For one data set, the target named is T1, human GPR119 receptor (Homo sapiens, UniProt Q8TDV5).
T1 construct: host or cells: GeneBLAzer T-Rex GPR 119 CHO-K1 DA cells (CHO-K1)
T1 sequence (Q8TDV5 1-335): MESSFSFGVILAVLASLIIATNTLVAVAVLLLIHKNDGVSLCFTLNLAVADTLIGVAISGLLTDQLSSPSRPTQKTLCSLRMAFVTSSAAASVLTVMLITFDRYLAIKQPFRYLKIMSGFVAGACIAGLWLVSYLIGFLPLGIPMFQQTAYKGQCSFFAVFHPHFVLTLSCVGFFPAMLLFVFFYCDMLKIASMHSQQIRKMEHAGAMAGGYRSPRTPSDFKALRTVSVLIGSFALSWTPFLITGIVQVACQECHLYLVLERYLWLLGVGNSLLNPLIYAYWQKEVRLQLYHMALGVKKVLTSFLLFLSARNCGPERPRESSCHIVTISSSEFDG
The experiment in a line: Activity test for human GPR119 receptor (GeneBLAzer T-Rex GPR 119 CHO-K1 DA cells). In kind it is cell-based. To be noted: for EC50: human GPR119 receptor expressing CHO-K1 cells, 5 hours treatment, read-out: hGPR119 EC50; for activity for human GPR119 receptor (in words): judgement on the EC50 values of Table 11. Summed up:
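Compounds at 0.1, 1 and 10 μM, in duplicate, on GeneBLAzer T-Rex GPR119 CHO-K1 DA cells for 5 h, then 2 h with colour-development reagent before fluorescence reading. Test-to-vehicle-control ratio converted to EC50; mean±SD.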

A further data set relates to Male C57/6J Jms mice. The experiment in a line: Glucose tolerance test in normal mouse. In kind it is in vivo. The procedure:
1. Method of Glucose Tolerance Test
Male C57/6J Jms mice of 6-7 weeks of age were fasted for 16 hours before the start of glucose tolerance test. […]
Before compound administration, that is, at 0 hour, whole blood glucose level was determined using a Glucometer (ACCU-CHEK, Roche). At 30 minutes after compound administration, whole blood glucose level was determined once again, and 20% glucose (2 g/kg/10 mL) was administered orally. Whole blood glucose level was determined at 20, 40, 60, 80, and 120 minutes after 20% glucose administration. Whole blood glucose level vs. Time was graphicalized. Area under the curve (AUC) of whole blood glucose level was obtained using GraphPad Prism 4.0. The effect of glucose tolerance was adjudged with the corrected area under the curve (cAUC), on which the base value of glucose area under the curve was excluded.

In data set [1] the test system is Glucagon-Like Peptide-1 (GLP-1) secretion. Briefly: Secretion capacity test of glucagon-like peptide-1 (GLP-1). To be noted: normal mice, oral, AUC of plasma GLP-1 level, vehicle (water) 100%. In kind it is in vivo, mouse. The method, then:
3. Secretion Capacity Test of Glucagon-Like Peptide-1 (GLP-1)
Male C57/6J Jms mice of 6-7 weeks of age were fasted for 16 hours before the start of the test of secretion capacity test of GLP-1. The experimental animal groups consist of: a vehicle group (100% DI water); and test groups administered with each compounds (10 mg/kg). Blood samples were taken from the orbital vein of the test animals. Plasma GLP-1 level was determined using a GLP-1 ELISA kit (Total GLP-1 ELISA, ALPCO). With the base of 30 minutes before the compound administration, each blood samples were taken at 30, 60, 120 and 210 minutes after the compound administration. 30% Glucose solution (3 g/kg/10 mL) was administered orally at 5 minutes before each blood-collecting. From the collected blood, only plasma was taken using a centrifuge (12000 rpm, 15 minutes), and stored at −80° C. before analysis. Plasma GLP-1 level vs. Time was graphicalized. Area under the curve (AUC) of plasma GLP-1 level was obtained using GraphPad Prism 4.0. All the results were expressed as mean±SD, and each test groups and the control group were compared using one-way ANOVA test (Dunnett's test, *p<0.05, **p<0.01, ***p<0.001) to adjudge the effects of each test groups.

Data set [2] can be described thus: Solubility test of GPR 119 agonist compounds (Nephelostar). The following applies: aqueous with cosolvent or surfactant or cyclodextrin, kinetic from dmso stock. In kind it is physicochemical. The method, then: 1. Method of Solubility Test
Each test compounds were dissolved in 5% DMSO aqueous solution as a solvent at several concentrations. When a laser was irradiated to the solution, the particles, which are not dissolved in the solvent, scatter the light. The level of the scattered light is dependent to the number of the particles, so the solubility of the test compound in the solution can be determined using the relationship. As the test equipment, Nephelostar was used.

Setting [3] is: pH 2, 5% DMSO aqueous solution, read-out: Solubility pH 2.
Setting [4] is: pH 4, 5% DMSO aqueous solution, read-out: Solubility pH 4.
The mark [5] stands for this setting: pH 6, 5% DMSO aqueous solution, read-out: Solubility pH 6.
The mark [6] stands for this setting: pH 8, 5% DMSO aqueous solution, read-out: Solubility pH 8.

≈ marks a conversion by molar mass, not a printed value. Read-outs that look alike come from different tables or passages of the source.

With `CC(C)(F)CN1CCC(COc2ccc(-c3ccc(C(=O)N4CCC[C@@]4(C)C(N)=O)c(F)c3)nc2)CC1` [Compound 1207, (S)-1-(2-fluoro-4-(5-((1-(2-fluoro-2-methylpropyl)piperidin-4-yl)methoxy)pyridin-2-yl)benzoyl)-2-methylpyrrolidin-2-carboxamide], the EC50 at human GPR119 receptor came to 0.07 nM. The “activity for human GPR119 receptor (in words)” value (shortened to “activity”) at human GPR119 receptor was “excellent activity”. Besides, the “Decrease % of AUC at 2.5 mg/kg” value with Male C57/6J Jms mice was 31.3%. Further, the “Decrease % of AUC at 5 mg/kg” value in the data set with Male C57/6J Jms mice stood at 45.1%. Further, the “GLP-1 secretion (%) at 10 mg/kg of dose” value in data set [1] stood at 223%. The solubility in data set [2] (setting [3]), in data set [2] (setting [4]), in data set [2] (setting [5]) and in data set [2] (setting [6]) was greater than 257 µg/mL each time.
On to `CCC(F)(CC)CN1CCC(COc2ccc(-c3ccc(C(=O)N4C[C@H](O)C[C@H]4C(N)=O)c(F)c3)nc2)CC1` [Compound 1279, (2S,4R)-1-(4-(5-((1-(2-ethyl-2-fluorobutyl)piperidin-4-yl)methoxy)pyridin-2-yl)-2-fluorobenzoyl)-4-hydroxypyrrolidin-2-carboxamide], for which the EC50 at human GPR119 receptor came out at 13 nM. Further, the “activity” value on human GPR119 receptor was “excellent activity”. The “Decrease % of AUC at 2.5 mg/kg” value in the data set with Male C57/6J Jms mice came to 20.8%. In addition, the “Decrease % of AUC at 5 mg/kg” value in the data set with Male C57/6J Jms mice worked out at 30.2%. The “GLP-1 secretion (%) at 10 mg/kg of dose” value in data set [1] was determined as 324%. Further, the solubility in data set [2] (setting [3]) was greater than 272 µg/mL; in data set [2] (setting [4]) it was greater than 272 µg/mL; in data set [2] (setting [5]), greater than 272 µg/mL; in data set [2] (setting [6]), 133 µg/mL (≈ 244 µM).
With `CCC(F)(CC)CN1CCC(COc2ccc(-c3ccc(C(=O)N4C[C@H](O)C[C@@]4(C)C(N)=O)c(F)c3)nc2)CC1` [Compound 1291, (2S,4R)-1-(4-(5-((1-(2-ethyl-2-fluorobutyl)piperidin-4-yl)methoxy)pyridin-2-yl)-2-fluorobenzoyl)-4-hydroxy-2-methylpyrrolidin-2-carboxamide], the EC50 on human GPR119 receptor was found to be 13 nM. The “activity” value on human GPR119 receptor was “excellent activity”. Further, the “Decrease % of AUC at 2.5 mg/kg” value in the data set on Male C57/6J Jms mice amounted to 15.7%. Moreover, the “Decrease % of AUC at 5 mg/kg” value in the data set on Male C57/6J Jms mice is 38.0%. Besides, the “GLP-1 secretion (%) at 10 mg/kg of dose” value in data set [1] amounted to 347%. The solubility in data set [2] (setting [3]) was greater than 279 µg/mL; in data set [2] (setting [4]), greater than 279 µg/mL; in data set [2] (setting [5]), greater than 279 µg/mL; in data set [2] (setting [6]), 166 µg/mL (≈ 297 µM).
With `CCc1cnc(N2CCC(c3nc(COc4ccc(-n5cnnn5)cc4)cs3)CC2)nc1` [MBX-2982, reference compound], in the data set on Male C57/6J Jms mice, the “Decrease % of AUC at 2.5 mg/kg” value is 9.5%. Moreover, the “Decrease % of AUC at 5 mg/kg” value in the data set with Male C57/6J Jms mice is reported as 18.5%. Further, the “Decrease % of AUC at 10 mg/kg” value in the data set with Male C57/6J Jms mice (10 mg/kg, whole blood glucose AUC after oral glucose 2 g/kg) is given as 20~30%. Also, in data set [1], the “GLP-1 secretion (%) at 10 mg/kg of dose” value was determined as 114%. Moreover, the solubility in data set [2] (setting [3]) was greater than 208 µg/mL; in data set [2] (setting [4]), 133 µg/mL (≈ 297 µM); in data set [2] (setting [5]), 61 µg/mL (≈ 136 µM); in data set [2] (setting [6]) it was 39 µg/mL (≈ 86.9 µM).
